Legend:
Herpes Zoster (HZV) = assay: Case histories: systemic anti-viral drug alone for shingles; format: in vivo, human
Text: A person with a clinical history of recurrent Herpes Zoster (HZV) (or in layman's terms, shingles) experienced a recurrent outbreak after a stressful week at work and a weekend in the sun following a trip to a tanning booth. (It is known that stress and UV-B can both trigger herpetic outbreaks.) This subject had their first episode with HZV about one year prior. They were diagnosed by their physician and given a prescription for Zovirax (acyclovir). They took the Zovirax, but experienced lesions lasting 3-4 weeks and experienced over 12 weeks of post-herpetic neuralgia. The previous episode included all the classic stages, including weeping, but only involved several very small lesions.
A person was vacationing in California when they developed a red rash and subsequent lesions on their right buttock. They were diagnosed with herpes zoster (shingles) on day 2, after first signs and symptoms were noted, and was prescribed valacyclovir (Valtrex) per label.
As […] to get to their home from California, they and their spouse elected to extend their time in California.
The patient initially went to the doctor in the early stages of the infection when it was only on their leg. The doctor diagnosed the condition as shingles and prescribed the patient Valtrex. […] The bumps were smaller but they kept spreading. The doctor advised them to keep taking the Valtrex. Once the patient finished the first prescription of Valtrex, the doctor provided a second Valtrex prescription. […] The sores remained the same size although the sores on the patient's leg were much larger than on their lower trunk.
A person had shingles on their neck and shoulders. Their sibling is a physician and diagnosed shingles and prescribed a nucleoside drug according to FDA approved labeling. The lesions had started to propagate down the affected dermatomes of the shoulder and neck. The lesions continued to progress despite anti-viral therapy.

[1] = cited from earlier work
[2] = cited from earlier work; remark: listed apart in the source
[3] = Example 4, person, first HZV episode, Zovirax alone

Row | Structure (SMILES) | duration of post-herpetic neuralgia (Herpes Zoster (HZV); [3]) | lesions lasting (Herpes Zoster (HZV); [3]) | absorption from the gastrointestinal tract ([1]; after oral administration) | solubility in water [2] | state on day 18 after first signs, after completed regimen (Herpes Zoster (HZV); Example 6, Valtrex regimen as prescribed) | effect on shingles initially (Herpes Zoster (HZV); Example 6, person, Valtrex per label from day 2) | state of sores after first prescription finished (Herpes Zoster (HZV); Example 8, Valtrex alone) | course of lesions shortly after first doses (Herpes Zoster (HZV); Example 8, person, Valtrex alone) | bioavailability ([1]; oral administration, shown in U.S. Pat. No. 4,957,924)
1 | Nc1nc2c(ncn2COCCO)c(=O)[nH]1 [Aciclovir, 9-(2-hydroxyethoxymethyl)guanine] | over 12 weeks | 3-4 weeks | poorly absorbed | poorly soluble in water |  |  |  |  | 
2 | CC(C)[C@H](N)C(=O)OCCOCn1cnc2c(=O)[nH]c(N)nc21 [Valtrex] |  |  |  |  | still had open herpetic lesions | little noticeable effect initially | still open and large | the lesions spread up the patient's leg and to their lower trunk | improved bioavailability

Reference: US9549930B2, “Combined systemic and topical treatment of disordered and/or prodromal stage tissue” (priority 2013, dated 2017)
